Reference: paper PMC7395068, “The evolution of strategies to minimise the risk of human drug-induced liver injury (DILI) in drug discovery and development” (Archives of Toxicology, 2020)
Where two headings read alike, the source gives them in different places.

Experiments:
HepG2 cells = conditions: cited from earlier work
[1] = system: THLE or HepG2 cells, isolated mitochondria, BSEP; conditions: cited from earlier work
[2] = system: HepG2 C3A spheroid, BSEP, Glu/Gal in HepG2 cells, bioactivation; conditions: cited from earlier work
HepaRG spheroids [3] = assay: Combined HCI (HCS) and cellular ATP 3D assay in HepaRG spheroids; conditions: Homo sapiens, HepaRG
PHH spheroids = conditions: cited from earlier work
[4] = system: HepG2 cells, primary human hepatocytes; conditions: cited from earlier work
[5] = system: THLE-Null and THLE-3A4 cells; conditions: cited from earlier work
[6] = in vivo; cited from earlier work
hLiMTs [7] = system: hLiMTs
[8] = Plasma free fraction (fu) and unbound Cmax (Cmax,u); assay type: in vitro ADME, human; conditions: human
Protocol: The prediction of DILI severity was evaluated further using the 3D combined HCI assays using plasma-free fraction. The majority of fu values were obtained from literature, when unavailable in-house prediction was utilised. Unbound plasma Cmax concentrations (Cmax,u) were derived by multiplying total plasma Cmax with the corresponding free fraction (fu) for each compound.

rBsep = conditions: cited from earlier work
HepaRG spheroids [9] = system: HepaRG spheroids
Upcyte human hepatocytes = conditions: cited from earlier work
[10] = in vivo; cited from earlier work; remark: listed apart in the source
[11] = system: primary human hepatocytes, NIH3T3 fibroblasts, BSEP, CYP3A4; conditions: cited from earlier work
hLiMTs [12] = assay: Combined HCI (HCS) and cellular ATP 3D assay in hLiMTs; conditions: Homo sapiens
[13] = human, in vivo; cited from earlier work
human hepatocytes = conditions: cited from earlier work
PHH = conditions: cited from earlier work

Nc1c2c(nc3ccccc13)CCCC2 [tacrine, reference compound]
Structural based (HCI) (HepG2 cells): -VE
Ro2 Hybrid HRM Score [1]: +VE
Rule of Two hybrid HRM Score ≥8, Aleo (2019) [1]: -VE
Bayesian Machine Learning [2]: +VE
Bayesian Machine Learning DILI prediction, Williams (2019) [2]: +VE
AC50 (HepaRG spheroids [3]; read-out: ATP endpoint AC50): 51.8 µM
minimal effective concentration (HepaRG spheroids [3]; read-out: ATP endpoint MEC): 45.3 µM
AC50 (HepaRG spheroids [3]; read-out: HCS endpoint AC50): 65.6 µM
minimal effective concentration (HepaRG spheroids [3]; read-out: HCS endpoint MEC): 48.7 µM
DILI in vitro assay prediction, Vorrink (2018) (PHH spheroids): -VE
Cluster 1-6 +VE Assay [4]: +VE
THLE-Null [5]: -VE
Assigned DILI category [6]: 2
hLiMTs <10 uM All (hLiMTs [7]): -ve
hLiMTs <100x Avg Cmaxu ATP (hLiMTs [7]; human): -ve
hLiMTs <100x Avg Cmaxu All (hLiMTs [7]; human): -ve
hLiMTs <100x Avg Cmaxu HCS (hLiMTs [7]; human): -ve
hLiMTs Cmax max All (hLiMTs [7]; human): -ve
hLiMTs Cmax min All (hLiMTs [7]; human): -ve
Human plasma Cmax,u [8]: 36 nM
Inhibition of rBsep cutoff<3 (rBsep; In vitro Assay, ref Dawson 2012): -VE
Inhibition of rBsep cutoff<1& cmax u>.2 (rBsep): -VE
HepaRG <10 uM All (HepaRG spheroids [9]): -ve
HepaRG <100x Avg Cmaxu ATP (HepaRG spheroids [9]; human): -ve
HepaRG <100x Avg Cmaxu All (HepaRG spheroids [9]; human): -ve
HepaRG <100x Avg Cmaxu HCS (HepaRG spheroids [9]; human): -ve
HepaRG Cmax max All (HepaRG spheroids [9]; human): -ve
HepaRG Cmax min All (HepaRG spheroids [9]; human): -ve
Upcytes multi donor assay 14day data (Upcyte human hepatocytes): +VE
DILI Score (FDA) (1-8) [10]: 7
Cellular toxicity (3T3 cells) [11]: -VE
Combined Assay [11]: +VE
DILI in vitro assay prediction, Schadt (2015) [11]: +VE
GSH adduct HML [11]: +VE
Hepatocyte cellular toxicity [11]: -VE
MitoTox 3T3 [11]: -VE
TDI CYP3A4 [11]: -VE
hBSEP inhibition [11]: -VE
AC50 (hLiMTs [12]; read-out: ATP endpoint AC50): 41.8 µM
minimal effective concentration (hLiMTs [12]; read-out: ATP endpoint MEC): 44.7 µM
AC50 (hLiMTs [12]; read-out: HCS endpoint AC50): 52.4 µM
minimal effective concentration (hLiMTs [12]; read-out: HCS endpoint MEC): 38.5 µM
Cmax [13]: 80 nM
DILI in vitro assay prediction, Xu (2008) (human hepatocytes): -VE
Structural based (HCI) (human hepatocytes): -VE
PHH ATP <100uM (PHH): -VE
PHH/100uM, Proctor (2017) (PHH): -VE
